Measured values taken from PMC10648927, “Examining the activity of cefepime-taniborbactam against Burkholderia cepacia complex and Burkholderia gladioli isolated from cystic fibrosis patients in the United States” (Antimicrobial Agents and Chemotherapy, 2023).
Converted amounts (≈) assume the structure as drawn.

Columns and labels:
Parameters in all cases: agar dilution MIC, growth inhibition of clinical Burkholderia isolates
[1] = tested on: T1, B. cenocepacia AU11339; test: microbe, parasite or virus in culture; conditions: Burkholderia cenocepacia, AU11339
T1 construct: AU11339
Description: (§1) We evaluated the activity of cefepime-taniborbactam against a panel of 140 Bcc clinical isolates (i.e., species ambifaria, arboris, cenocepacia, cepacia, contaminans, diffusa, dolosa, multivorans, pseudomultivorans, pyrrocinia, seminalis, stabilis, ubonensis, and vietnamiensis) and 10 B. gladioli from the Burkholderia cepacia Research Laboratory and Repository (University of Michigan) ([22], [25], [31]) (Supplementary Material, Tables S1 and S2). K. pneumoniae ATCC 700603 carrying bla SHV-18 and K. pneumoniae ATCC BAA-1705 harboring bla KPC strains were used as controls for β-lactam and β-lactamase inhibitor integrity; all controls tested within the anticipated quality control ranges (Table S3). Minimum inhibitory concentration (MIC) results were interpreted using Clinical Laboratory Standards Institute (CLSI) breakpoints, where available ([32]). […] An alternative cefepime-taniborbactam provisional susceptible breakpoint of ≤16 µg/mL is supported by in vivo efficacy data from neutropenic murine infection models (thigh, complicated urinary tract, and lung) ([15] [–] [17]) and data from safety and pharmacokinetics studies in human volunteers ([33], [34]). The cefepime-taniborbactam antimicrobial activity was compared to cefepime, meropenem, meropenem-vaborbactam, and levofloxacin, to data published for first-line agents (e.g., ceftazidime and trimethoprim-sulfamethoxazole) and to those recommended by the CLSI for clinical testing (e.g., minocycline) against the Bcc and B. gladioli panel ([22], [32]). Of note, the MICs of all these agents were determined by the agar dilution method, which alongside broth microdilution, are recommended by the CLSI to assess the antimicrobial susceptibility of Bcc isolates ([32]).

[2] = tested on: T2, B. cepacia AU27816; test: microbe, parasite or virus in culture; conditions: Burkholderia cepacia, AU27816
T2 construct: AU27816
Description: as §1

[3] = tested on: T3, B. cepacia AU17630; test: microbe, parasite or virus in culture; conditions: Burkholderia cepacia, AU17630
T3 construct: AU17630
Description: as §1

[4] = tested on: T4, B. pyrrocinia AU1114; test: microbe, parasite or virus in culture; conditions: Burkholderia pyrrocinia, AU1114
T4 construct: AU1114
Description: as §1

[5] = tested on: T5, Burkholderia cepacia complex Bcc Indeterminate AU18117; test: microbe, parasite or virus in culture; conditions: Burkholderia cepacia
T5 construct: AU18117
Description: as §1

[6] = tested on: T6, B. arboris AU24192; test: organism not typed
T6 construct: AU24192
Description: as §1

[7] = tested on: T7, B. cepacia AU15249; test: microbe, parasite or virus in culture; conditions: Burkholderia cepacia, AU15249
T7 construct: AU15249
Description: as §1

[8] = tested on: T8, B. cenocepacia AU29265; test: microbe, parasite or virus in culture; conditions: Burkholderia cenocepacia, AU29265
T8 construct: AU29265
Description: as §1

[9] = tested on: T9, B. contaminans AU20979; test: organism not typed
T9 construct: AU20979
Description: as §1

[10] = tested on: T10, B. ambifaria AU11161; test: microbe, parasite or virus in culture; conditions: Burkholderia ambifaria, AU11161
T10 construct: AU11161
Description: as §1

[11] = tested on: T11, Burkholderia cepacia complex Bcc Indeterminate AU19076; test: microbe, parasite or virus in culture; conditions: Burkholderia cepacia
T11 construct: AU19076
Description: as §1

[12] = tested on: T12, B. multivorans AU17135; test: microbe, parasite or virus in culture; conditions: Burkholderia multivorans, AU17135
T12 construct: AU17135
Description: as §1

[13] = tested on: T13, B. multivorans AU14786; test: microbe, parasite or virus in culture; conditions: Burkholderia multivorans, AU14786
T13 construct: AU14786
Description: as §1

[14] = tested on: T14, Burkholderia cepacia complex Bcc Indeterminate AU9162; test: microbe, parasite or virus in culture; conditions: Burkholderia cepacia
T14 construct: AU9162
Description: as §1

[15] = tested on: T15, B. contaminans AU2244; test: organism not typed
T15 construct: AU2244
Description: as §1

[16] = tested on: T16, B. vietnamiensis AU28891; test: microbe, parasite or virus in culture; conditions: Burkholderia vietnamiensis, AU28891
T16 construct: AU28891
Description: as §1

[17] = tested on: T17, B. cenocepacia AU9710; test: microbe, parasite or virus in culture; conditions: Burkholderia cenocepacia, AU9710
T17 construct: AU9710
Description: as §1

[18] = tested on: T18, B. cenocepacia AU20146; test: microbe, parasite or virus in culture; conditions: Burkholderia cenocepacia, AU20146
T18 construct: AU20146
Description: as §1

[19] = tested on: T19, B. contaminans AU22662; test: organism not typed
T19 construct: AU22662
Description: as §1

[20] = tested on: T20, B. cenocepacia AU19276; test: microbe, parasite or virus in culture; conditions: Burkholderia cenocepacia, AU19276
T20 construct: AU19276
Description: as §1

[21] = tested on: T21, B. cenocepacia AU12265; test: microbe, parasite or virus in culture; conditions: Burkholderia cenocepacia, AU12265
T21 construct: AU12265
Description: as §1

[22] = tested on: T22, B. multivorans AU20929; test: microbe, parasite or virus in culture; conditions: Burkholderia multivorans, AU20929
T22 construct: AU20929
Description: as §1

[23] = tested on: T23, B. pseudomultivorans AU19682; test: organism not typed
T23 construct: AU19682
Description: as §1

C[C@H]1COc2c(N3CCN(C)CC3)c(F)cc3c(=O)c(C(=O)O)cn1c23 [levofloxacin]
MIC [1]: 2 µg/mL (≈ 5.53 µM) | MIC [2]: 4 µg/mL (≈ 11.1 µM) | MIC [3]: 4 µg/mL (≈ 11.1 µM) | MIC [4]: > 32 µg/mL | MIC [5]: > 32 µg/mL | MIC [6]: 4 µg/mL (≈ 11.1 µM) | MIC [7]: 4 µg/mL (≈ 11.1 µM) | MIC [8]: 2 µg/mL (≈ 5.53 µM) | MIC [9]: 32 µg/mL (≈ 88.6 µM) | MIC [10]: 32 µg/mL (≈ 88.6 µM) | MIC [11]: 4 µg/mL (≈ 11.1 µM) | MIC [12]: 2 µg/mL (≈ 5.53 µM) | MIC [13]: > 32 µg/mL | MIC [14]: 1 µg/mL (≈ 2.77 µM) | MIC [15]: 4 µg/mL (≈ 11.1 µM) | MIC [16]: 8 µg/mL (≈ 22.1 µM) | MIC [17]: 4 µg/mL (≈ 11.1 µM) | MIC [18]: 2 µg/mL (≈ 5.53 µM) | MIC [19]: 4 µg/mL (≈ 11.1 µM) | MIC [20]: 0.5 µg/mL (≈ 1.38 µM) | MIC [21]: 4 µg/mL (≈ 11.1 µM) | MIC [22]: 4 µg/mL (≈ 11.1 µM) | MIC [23]: 16 µg/mL (≈ 44.3 µM)

CO/N=C(\C(=O)N[C@@H]1C(=O)N2C(C(=O)[O-])=C(C[N+]3(C)CCCC3)CS[C@H]12)c1csc(N)n1 [cefepime]
MIC [1]: 16 µg/mL (≈ 33.3 µM) | MIC [2]: 16 µg/mL (≈ 33.3 µM) | MIC [3]: > 32 µg/mL | MIC [4]: 8 µg/mL (≈ 16.6 µM) | MIC [5]: > 32 µg/mL | MIC [6]: 32 µg/mL (≈ 66.6 µM) | MIC [7]: 32 µg/mL (≈ 66.6 µM) | MIC [8]: 16 µg/mL (≈ 33.3 µM) | MIC [9]: > 32 µg/mL | MIC [10]: > 32 µg/mL | MIC [11]: 16 µg/mL (≈ 33.3 µM) | MIC [12]: 4 µg/mL (≈ 8.32 µM) | MIC [13]: > 32 µg/mL | MIC [14]: 32 µg/mL (≈ 66.6 µM) | MIC [15]: 16 µg/mL (≈ 33.3 µM) | MIC [16]: 8 µg/mL (≈ 16.6 µM) | MIC [17]: 16 µg/mL (≈ 33.3 µM) | MIC [18]: 16 µg/mL (≈ 33.3 µM) | MIC [19]: 16 µg/mL (≈ 33.3 µM) | MIC [20]: 8 µg/mL (≈ 16.6 µM) | MIC [21]: 16 µg/mL (≈ 33.3 µM) | MIC [22]: 8 µg/mL (≈ 16.6 µM) | MIC [23]: > 32 µg/mL

C[C@@H](O)[C@H]1C(=O)N2C(C(=O)O)=C(S[C@@H]3CN[C@H](C(=O)N(C)C)C3)[C@H](C)[C@H]12 [meropenem]
MIC [1]: 2 µg/mL (≈ 5.22 µM) | MIC [2]: 4 µg/mL (≈ 10.4 µM) | MIC [3]: 4 µg/mL (≈ 10.4 µM) | MIC [4]: 4 µg/mL (≈ 10.4 µM) | MIC [5]: 8 µg/mL (≈ 20.9 µM) | MIC [6]: 8 µg/mL (≈ 20.9 µM) | MIC [7]: 4 µg/mL (≈ 10.4 µM) | MIC [8]: 2 µg/mL (≈ 5.22 µM) | MIC [9]: 8 µg/mL (≈ 20.9 µM) | MIC [10]: 8 µg/mL (≈ 20.9 µM) | MIC [11]: 4 µg/mL (≈ 10.4 µM) | MIC [12]: 4 µg/mL (≈ 10.4 µM) | MIC [13]: 16 µg/mL (≈ 41.7 µM) | MIC [14]: 4 µg/mL (≈ 10.4 µM) | MIC [15]: 4 µg/mL (≈ 10.4 µM) | MIC [16]: 2 µg/mL (≈ 5.22 µM) | MIC [17]: 4 µg/mL (≈ 10.4 µM) | MIC [18]: 4 µg/mL (≈ 10.4 µM) | MIC [19]: 4 µg/mL (≈ 10.4 µM) | MIC [20]: 2 µg/mL (≈ 5.22 µM) | MIC [21]: 4 µg/mL (≈ 10.4 µM) | MIC [22]: 8 µg/mL (≈ 20.9 µM) | MIC [23]: 8 µg/mL (≈ 20.9 µM)
